Test results taken from PubChem BioAssay (NCI).
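1) Cells in 96-well plates. 2) Compound, 48 h, 5 concentrations. 3) Linear interpolation between surrounding doses. 4) Unreached endpoint = highest concentration. GI50 is the concentration that inhibits growth by half. TGI: total growth inhibition.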

Legend:
Test in all cases: NCI anticancer screen, dose series, 48 h
EKVX NSCLC = test system: EKVX NSCLC
COLO 205 colon = test system: COLO 205 colon
KM12 colon = test system: KM12 colon
UO-31 renal = test system: UO-31 renal
MCF7 breast = test system: MCF7 breast
SF-268 CNS = test system: SF-268 CNS
UACC-257 melanoma = test system: UACC-257 melanoma
DU-145 prostate = test system: DU-145 prostate
SNB-19 CNS = test system: SNB-19 CNS
BT-549 breast = test system: BT-549 breast
HCC-2998 colon = test system: HCC-2998 colon

SMILES | TGI (EKVX NSCLC) | TGI (COLO 205 colon) | TGI (KM12 colon) | TGI (UO-31 renal) | TGI (MCF7 breast) | TGI (SF-268 CNS) | TGI (UACC-257 melanoma) | TGI (DU-145 prostate) | TGI (SNB-19 CNS) | TGI (BT-549 breast) | TGI (HCC-2998 colon) | GI50 (HCC-2998 colon) | GI50 (EKVX NSCLC) | GI50 (COLO 205 colon) | GI50 (KM12 colon) | GI50 (MCF7 breast) | GI50 (SF-268 CNS) | GI50 (UACC-257 melanoma) | GI50 (DU-145 prostate) | GI50 (SNB-19 CNS)
Cc1ncn(-c2ccccc2O)c1C | > 100 µM | > 100 µM | > 100 µM | > 100 µM | > 100 µM | > 100 µM | > 100 µM | > 100 µM | > 100 µM | > 100 µM |  |  |  |  |  |  |  |  |  | 
OC1NC2Nc3ccccc3NC2NC1O (stereo unspecified) | > 100 µM | > 100 µM | > 100 µM |  | > 100 µM | > 100 µM | > 100 µM | > 100 µM | > 100 µM |  | > 100 µM |  |  |  |  |  |  |  |  | 
O=c1onc2n1-c1ccc(Cl)cc1C(=S)N1CSCC21 (stereo unspecified) | > 100 µM | 35.1 µM | 59.6 µM | > 100 µM | 96.9 µM | 69.7 µM | > 100 µM | > 100 µM | 52.5 µM | 67.4 µM | 35.4 µM |  |  |  |  |  |  |  |  | 
COc1ccc2c(c1)c1c3c(ccc4ncn2c43)N(CCO)CCN=1 | 1.08 µM | 0.158 µM | 1.22 µM | 0.255 µM | 0.944 µM | 1.86 µM | 1.39 µM | 1.59 µM | 1.46 µM |  | 0.369 µM |  |  |  |  |  |  |  |  | 
CN(O)C(=O)CCC(NC(=O)CCC(N)C(=O)O)C(=O)NCC(=O)O (stereo unspecified) | > 100 µM | > 100 µM | > 100 µM | > 100 µM | > 100 µM | > 100 µM | > 100 µM | > 100 µM | > 100 µM | > 100 µM | > 100 µM |  |  |  |  |  |  |  |  | 
NC1=Nc2ccccc2Sc2nncn21 | > 100 µM | > 100 µM | > 100 µM | > 100 µM | > 100 µM | > 100 µM | > 100 µM | > 100 µM | > 100 µM | > 100 µM | > 100 µM |  |  |  |  |  |  |  |  | 
COC(=O)C1=C(C)NC(=O)N2[C@@H](CCOCc3ccccc3)CC[C@@H]12 | > 50 µM | > 50 µM | > 50 µM | > 50 µM | > 50 µM | > 50 µM | > 50 µM | > 50 µM | > 50 µM |  | > 50 µM |  |  |  |  |  |  |  |  | 
S=C(NCc1ccccc1)Nc1sc(=NCc2ccccc2)nc2sc3c(c12)CCN(N1CCc2c(sc4nc(=NCc5ccccc5)sc(NC(=S)NCc5ccccc5)c24)C1)C3 | > 64.1 µM | > 100 µM | > 67.5 µM | > 60.8 µM | > 62.2 µM | > 100 µM | > 78.4 µM | > 90.8 µM | > 64.2 µM | > 85.6 µM | > 62 µM |  |  |  |  |  |  |  |  | 
CC(=O)Nc1nc(C)c(S(=O)(=O)NC(=O)NC2NC(=O)NC2=O)s1 (stereo unspecified) | > 100 µM | > 100 µM | > 100 µM | > 100 µM | > 100 µM | > 100 µM | > 100 µM | > 100 µM | > 100 µM | > 100 µM | > 100 µM |  |  |  |  |  |  |  |  | 
CCOP(=O)(CC(=O)C1CC1)OCC | > 100 µM | > 100 µM | > 100 µM | > 100 µM | > 100 µM | > 100 µM | > 100 µM | > 100 µM | > 100 µM | > 100 µM | > 100 µM |  |  |  |  |  |  |  |  | 
C(=N\c1nc2cc3sc(/N=C/c4ccccc4)nc3cc2s1)/c1ccccc1 | > 100 µM | > 100 µM | > 100 µM | > 100 µM | > 100 µM | > 100 µM | > 100 µM | > 100 µM | > 100 µM | > 100 µM | > 100 µM |  |  |  |  |  |  |  |  | 
Cc1cn(C2CC(n3cc(Cn4ccc(=O)[nH]c4=O)nn3)C(CO)O2)c(=O)[nH]c1=O (stereo unspecified) |  | > 100 µM | > 100 µM | > 100 µM | > 100 µM | > 100 µM | > 100 µM | > 100 µM | > 100 µM | > 100 µM | > 100 µM |  |  |  |  |  |  |  |  | 
FC1(F)ON2CCc3ccccc3C2[C@H]1c1ccccc1 (stereo partly specified) | > 100 µM | > 100 µM | > 100 µM | > 100 µM | > 100 µM | > 100 µM | > 100 µM | > 100 µM | > 100 µM |  | > 100 µM | > 100 µM | > 100 µM | > 100 µM | > 100 µM | > 100 µM | > 100 µM | > 100 µM | > 100 µM | > 100 µM
C#CC1(O)CCC2[C@@H]3CCc4cc(Oc5nc(F)nc(-c6c(C)c(C(=O)OCC)n7ccccc67)n5)ccc4C3CC[C@@]21C (stereo partly specified) | > 100 µM | > 100 µM | > 100 µM | > 100 µM | > 100 µM | > 100 µM | > 100 µM | > 100 µM | > 100 µM | > 100 µM | > 100 µM |  |  |  |  |  |  |  |  | 
Cc1c(NC(=S)Nc2ccc([N+](=O)[O-])cc2)c(=O)n(-c2ccccc2)n1C | > 100 µM | > 100 µM | > 100 µM | > 100 µM | > 100 µM | > 100 µM | > 100 µM | > 100 µM | > 100 µM | > 100 µM | > 100 µM |  |  |  |  |  |  |  |  | 
CO/C=C(/C(=O)OC)[C@@H]1C[C@@H]1c1ccc2ccccc2c1 | 60 µM | 32.9 µM | 54.6 µM | > 100 µM | > 100 µM | 99.2 µM | 71.9 µM | > 100 µM | > 100 µM | 50.5 µM | 50.5 µM |  |  |  |  |  |  |  |  | 
C=C1C2CCC3C4(C)CCCC(C)(C(=O)O)C4CCC3(C2)C1OC(=O)/C(C)=C/C (stereo unspecified) | > 100 µM | 82.1 µM | 35.1 µM | 52.9 µM | 70.8 µM | > 100 µM | > 100 µM | > 100 µM |  | > 100 µM | 69.5 µM |  |  |  |  |  |  |  |  | 
NCC(=O)Nc1ccccc1 | > 100 µM |  | > 100 µM | > 100 µM |  | > 100 µM | > 100 µM | > 100 µM | > 100 µM | > 100 µM | > 100 µM |  |  |  |  |  |  |  |  | 
c1ccc2c3c(ccc2c1)-c1[nH]ncc1CCO3 | 45 µM | 99.7 µM | > 100 µM | 65.2 µM | > 100 µM | 98.8 µM | 83.6 µM |  | > 100 µM |  | > 100 µM |  |  |  |  |  |  |  |  | 
